The supplement of paper PMC10883282

How the values were obtained:
Experiment in all cases: relative viability vs DMSO control (72 h) (fraction); higher = more viable cells
G401 = test system: G401
Summary of the method: (§1)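 ATPLite readings, expressed as percent growth and averaged over up to triplicate wells, provided relative viability. Before reading, sarcoma cell lines seeded in 384-well plates to reach 80–90% confluence received 2.5 µl of serially diluted compound after 24 h, from source plates of 10 mM to 0.0002 mM. Plates were held 72 h at 37 °C, 5% CO2, with 0.1% DMSO as vehicle and a 5 µM positive control. The data were rescaled to 1 for full and 0 for none.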

HT1080 = test system: HT1080
Summary of the method: as §1

KHOS-NP = test system: KHOS-NP
Summary of the method: as §1

MES-SA = test system: MES-SA
Summary of the method: as §1

RD-ES = test system: RD-ES
Summary of the method: as §1

RD = test system: RD
Summary of the method: as §1

SK-ES-1 = test system: SK-ES-1
Summary of the method: as §1

SK-LMS-1 = test system: SK-LMS-1
Summary of the method: as §1

SW1353 = test system: SW1353
Summary of the method: as §1

SW684 = test system: SW684
Summary of the method: as §1

SW872 = test system: SW872
Summary of the method: as §1

VA-ES-BJ = test system: VA-ES-BJ
Summary of the method: as §1

CNC(=O)c1c(C)oc2cc(Oc3ncnc4cc(OC)c(OC)cc34)ccc12 [Fruquintinib]
Conditions	relative viability
G401, 0.00017 µM	0.988
G401, 0.00051 µM	1.02
G401, 0.00152 µM	1.02
G401, 0.00457 µM	0.986
G401, 0.01372 µM	1.03
G401, 0.04115 µM	1.01
G401, 0.1235 µM	0.965
G401, 0.3704 µM	0.953
G401, 1.111 µM	0.9
G401, 3.333 µM	0.698
G401, 10 µM	0.57
HT1080, 0.00017 µM	1.08
HT1080, 0.00051 µM	1.06
HT1080, 0.00152 µM	1.058
HT1080, 0.00457 µM	1.04
HT1080, 0.01372 µM	1.07
HT1080, 0.04115 µM	1.04
HT1080, 0.1235 µM	1.03
HT1080, 0.3704 µM	1.04
HT1080, 1.111 µM	1.054
HT1080, 3.333 µM	1.02
HT1080, 10 µM	1.01
KHOS-NP, 0.00017 µM	1.114
KHOS-NP, 0.00051 µM	1.11
KHOS-NP, 0.00152 µM	1.11
KHOS-NP, 0.00457 µM	1.09
KHOS-NP, 0.01372 µM	1.11
KHOS-NP, 0.04115 µM	1.099
KHOS-NP, 0.1235 µM	1.08
KHOS-NP, 0.3704 µM	1.07
KHOS-NP, 1.111 µM	1.07
KHOS-NP, 3.333 µM	1.03
KHOS-NP, 10 µM	1.027
MES-SA, 0.00017 µM	0.96
MES-SA, 0.00051 µM	0.975
MES-SA, 0.00152 µM	0.943
MES-SA, 0.00457 µM	0.935
MES-SA, 0.01372 µM	0.947
MES-SA, 0.04115 µM	0.9442
MES-SA, 0.1235 µM	0.922
MES-SA, 0.3704 µM	0.929
MES-SA, 1.111 µM	0.9218
MES-SA, 3.333 µM	0.855
MES-SA, 10 µM	0.806
RD, 0.00017 µM	1.03
RD, 0.00051 µM	1.09
RD, 0.00152 µM	1.09
RD, 0.00457 µM	1.1
RD, 0.01372 µM	1.07
RD, 0.04115 µM	1.08
RD, 0.1235 µM	1.06
RD, 0.3704 µM	1.089
RD, 1.111 µM	1.08
RD, 3.333 µM	1.08
RD, 10 µM	1.04
RD-ES, 0.00017 µM	0.93
RD-ES, 0.00051 µM	0.979
RD-ES, 0.00152 µM	0.968
RD-ES, 0.00457 µM	0.952
RD-ES, 0.01372 µM	0.971
RD-ES, 0.04115 µM	0.935
RD-ES, 0.1235 µM	0.968
RD-ES, 0.3704 µM	0.934
RD-ES, 1.111 µM	0.945
RD-ES, 3.333 µM	0.917
RD-ES, 10 µM	0.928
SK-ES-1, 0.00017 µM	1.01
SK-ES-1, 0.00051 µM	1.07
SK-ES-1, 0.00152 µM	1.04
SK-ES-1, 0.00457 µM	1.07
SK-ES-1, 0.01372 µM	1.06
SK-ES-1, 0.04115 µM	1.1
SK-ES-1, 0.1235 µM	1.05
SK-ES-1, 0.3704 µM	1
SK-ES-1, 1.111 µM	0.971
SK-ES-1, 3.333 µM	0.951
SK-ES-1, 10 µM	0.926
SK-LMS-1, 0.00017 µM	1.11
SK-LMS-1, 0.00051 µM	1.1
SK-LMS-1, 0.00152 µM	1.106
SK-LMS-1, 0.00457 µM	1.1
SK-LMS-1, 0.01372 µM	1.1
SK-LMS-1, 0.04115 µM	1.07
SK-LMS-1, 0.1235 µM	1.07
SK-LMS-1, 0.3704 µM	1.04
SK-LMS-1, 1.111 µM	1.01
SK-LMS-1, 3.333 µM	0.976
SK-LMS-1, 10 µM	0.991
SW684, 0.00017 µM	1.15
SW684, 0.00051 µM	1.12
SW684, 0.00152 µM	1.16
SW684, 0.00457 µM	1.18
SW684, 0.01372 µM	1.15
SW684, 0.04115 µM	1.15
SW684, 0.1235 µM	1.1
SW684, 0.3704 µM	1.13
SW684, 1.111 µM	1.12
SW684, 3.333 µM	1.09
SW684, 10 µM	1.07
SW872, 0.00017 µM	1.09
SW872, 0.00051 µM	1.06
SW872, 0.00152 µM	1.03
SW872, 0.00457 µM	1.04
SW872, 0.01372 µM	1.03
SW872, 0.04115 µM	0.988
SW872, 0.1235 µM	1
SW872, 0.3704 µM	0.963
SW872, 1.111 µM	0.9736
SW872, 3.333 µM	0.893
SW872, 10 µM	0.852
SW1353, 0.00017 µM	1.051
SW1353, 0.00051 µM	1.02
SW1353, 0.00152 µM	1.02
SW1353, 0.00457 µM	1.01
SW1353, 0.01372 µM	1.02
SW1353, 0.04115 µM	1.01
SW1353, 0.1235 µM	0.997
SW1353, 0.3704 µM	0.925
SW1353, 1.111 µM	0.863
SW1353, 3.333 µM	0.746
SW1353, 10 µM	0.763
VA-ES-BJ, 0.00017 µM	1.05
VA-ES-BJ, 0.00051 µM	1.02
VA-ES-BJ, 0.00152 µM	1.03
VA-ES-BJ, 0.00457 µM	1
VA-ES-BJ, 0.01372 µM	0.997
VA-ES-BJ, 0.04115 µM	1.01
VA-ES-BJ, 0.1235 µM	0.996
VA-ES-BJ, 0.3704 µM	1.03
VA-ES-BJ, 1.111 µM	0.995
VA-ES-BJ, 3.333 µM	0.953
VA-ES-BJ, 10 µM	0.936

COc1cc2ncnc(Nc3ccc(F)c(Cl)c3)c2cc1OCCCN1CCOCC1 [Gefitinib]
Conditions	relative viability
G401, 0.00017 µM	1.01
G401, 0.00051 µM	1
G401, 0.00152 µM	0.9788
G401, 0.00457 µM	0.987
G401, 0.01372 µM	1
G401, 0.04115 µM	0.996
G401, 0.1235 µM	1
G401, 0.3704 µM	0.993
G401, 1.111 µM	0.984
G401, 3.333 µM	0.835
G401, 10 µM	0.582
HT1080, 0.00017 µM	1.05
HT1080, 0.00051 µM	1.1
HT1080, 0.00152 µM	1.04
HT1080, 0.00457 µM	1.07
HT1080, 0.01372 µM	1.06
HT1080, 0.04115 µM	1.03
HT1080, 0.1235 µM	1.047
HT1080, 0.3704 µM	1.07
HT1080, 1.111 µM	1.05
HT1080, 3.333 µM	1.04
HT1080, 10 µM	0.483
KHOS-NP, 0.00017 µM	1.09
KHOS-NP, 0.00051 µM	1.08
KHOS-NP, 0.00152 µM	1.08
KHOS-NP, 0.00457 µM	1.08
KHOS-NP, 0.01372 µM	1.096
KHOS-NP, 0.04115 µM	1.07
KHOS-NP, 0.1235 µM	1.06
KHOS-NP, 0.3704 µM	1.06
KHOS-NP, 1.111 µM	1.08
KHOS-NP, 3.333 µM	1.08
KHOS-NP, 10 µM	0.898
MES-SA, 0.00017 µM	0.97
MES-SA, 0.00051 µM	0.948
MES-SA, 0.00152 µM	0.959
MES-SA, 0.00457 µM	0.952
MES-SA, 0.01372 µM	0.937
MES-SA, 0.04115 µM	0.962
MES-SA, 0.1235 µM	0.969
MES-SA, 0.3704 µM	0.969
MES-SA, 1.111 µM	0.925
MES-SA, 3.333 µM	0.739
MES-SA, 10 µM	0.4455
RD, 0.00017 µM	1.03
RD, 0.00051 µM	1.04
RD, 0.00152 µM	1.03
RD, 0.00457 µM	1.04
RD, 0.01372 µM	0.995
RD, 0.04115 µM	1.01
RD, 0.1235 µM	1.03
RD, 0.3704 µM	1.01
RD, 1.111 µM	1.05
RD, 3.333 µM	1.05
RD, 10 µM	0.18
RD-ES, 0.00017 µM	0.944
RD-ES, 0.00051 µM	0.967
RD-ES, 0.00152 µM	0.954
RD-ES, 0.00457 µM	0.965
RD-ES, 0.01372 µM	0.97
RD-ES, 0.04115 µM	0.978
RD-ES, 0.1235 µM	0.973
RD-ES, 0.3704 µM	0.987
RD-ES, 1.111 µM	0.962
RD-ES, 3.333 µM	0.844
RD-ES, 10 µM	0.464
SK-ES-1, 0.00017 µM	0.989
SK-ES-1, 0.00051 µM	0.988
SK-ES-1, 0.00152 µM	1
SK-ES-1, 0.00457 µM	1.01
SK-ES-1, 0.01372 µM	0.9857
SK-ES-1, 0.04115 µM	1
SK-ES-1, 0.1235 µM	1.01
SK-ES-1, 0.3704 µM	0.958
SK-ES-1, 1.111 µM	0.864
SK-ES-1, 3.333 µM	0.599
SK-ES-1, 10 µM	0.168
SK-LMS-1, 0.00017 µM	1.07
SK-LMS-1, 0.00051 µM	1.09
SK-LMS-1, 0.00152 µM	1.05
SK-LMS-1, 0.00457 µM	1.08
SK-LMS-1, 0.01372 µM	1.07
SK-LMS-1, 0.04115 µM	1.08
SK-LMS-1, 0.1235 µM	1.06
SK-LMS-1, 0.3704 µM	1.04
SK-LMS-1, 1.111 µM	1.05
SK-LMS-1, 3.333 µM	0.902
SK-LMS-1, 10 µM	0.108
SW684, 0.00017 µM	1.09
SW684, 0.00051 µM	1.16
SW684, 0.00152 µM	1.09
SW684, 0.00457 µM	1.17
SW684, 0.01372 µM	1.1
SW684, 0.04115 µM	1.15
SW684, 0.1235 µM	1.07
SW684, 0.3704 µM	1.16
SW684, 1.111 µM	1.1
SW684, 3.333 µM	1.15
SW684, 10 µM	0.424
SW872, 0.00017 µM	1
SW872, 0.00051 µM	1.02
SW872, 0.00152 µM	1.05
SW872, 0.00457 µM	1.026
SW872, 0.01372 µM	1.03
SW872, 0.04115 µM	1.02
SW872, 0.1235 µM	1.03
SW872, 0.3704 µM	1.04
SW872, 1.111 µM	1.01
SW872, 3.333 µM	0.868
SW872, 10 µM	0.476
SW1353, 0.00017 µM	1.03
SW1353, 0.00051 µM	1.073
SW1353, 0.00152 µM	0.999
SW1353, 0.00457 µM	1.02
SW1353, 0.01372 µM	1.02
SW1353, 0.04115 µM	0.979
SW1353, 0.1235 µM	0.93
SW1353, 0.3704 µM	0.903
SW1353, 1.111 µM	0.928
SW1353, 3.333 µM	0.892
SW1353, 10 µM	0.168
VA-ES-BJ, 0.00017 µM	1.05
VA-ES-BJ, 0.00051 µM	1.05
VA-ES-BJ, 0.00152 µM	1.074
VA-ES-BJ, 0.00457 µM	1.04
VA-ES-BJ, 0.01372 µM	1.04
VA-ES-BJ, 0.04115 µM	1.05
VA-ES-BJ, 0.1235 µM	1.05
VA-ES-BJ, 0.3704 µM	1.06
VA-ES-BJ, 1.111 µM	1.06
VA-ES-BJ, 3.333 µM	1.04
VA-ES-BJ, 10 µM	0.75
